ChEMBL document CHEMBL5120882, “Medicinal Chemistry Perspective on Targeting Mono-ADP-Ribosylating PARPs with Small Molecules” (J Med Chem, 2022)

Experiments:
[1] = molecular target: T1, Protein mono-ADP-ribosyltransferase PARP16 (Homo sapiens, UniProt Q8N5Y8); assay: Inhibition of PARP16 (unknown origin) using IRE-1 as substrate incubated for 1 hr by chemiluminescence assay
T1 sequence (Q8N5Y8 whole entry): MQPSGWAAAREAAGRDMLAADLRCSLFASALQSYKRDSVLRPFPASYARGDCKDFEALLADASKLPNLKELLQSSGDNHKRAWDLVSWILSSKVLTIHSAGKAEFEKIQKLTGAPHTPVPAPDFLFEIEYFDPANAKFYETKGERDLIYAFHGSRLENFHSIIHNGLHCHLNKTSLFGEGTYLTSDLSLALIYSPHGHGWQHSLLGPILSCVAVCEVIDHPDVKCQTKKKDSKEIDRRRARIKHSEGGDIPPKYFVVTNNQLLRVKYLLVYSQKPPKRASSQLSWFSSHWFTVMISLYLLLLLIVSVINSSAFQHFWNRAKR

[2] = molecular target: T2, Protein mono-ADP-ribosyltransferase PARP3 (Homo sapiens, UniProt Q9Y6F1); assay: Inhibition of recombinant human PARP3 using IRE-1 as substrate incubated for 1 hr by chemiluminescence assay
T2 sequence (Q9Y6F1 whole entry): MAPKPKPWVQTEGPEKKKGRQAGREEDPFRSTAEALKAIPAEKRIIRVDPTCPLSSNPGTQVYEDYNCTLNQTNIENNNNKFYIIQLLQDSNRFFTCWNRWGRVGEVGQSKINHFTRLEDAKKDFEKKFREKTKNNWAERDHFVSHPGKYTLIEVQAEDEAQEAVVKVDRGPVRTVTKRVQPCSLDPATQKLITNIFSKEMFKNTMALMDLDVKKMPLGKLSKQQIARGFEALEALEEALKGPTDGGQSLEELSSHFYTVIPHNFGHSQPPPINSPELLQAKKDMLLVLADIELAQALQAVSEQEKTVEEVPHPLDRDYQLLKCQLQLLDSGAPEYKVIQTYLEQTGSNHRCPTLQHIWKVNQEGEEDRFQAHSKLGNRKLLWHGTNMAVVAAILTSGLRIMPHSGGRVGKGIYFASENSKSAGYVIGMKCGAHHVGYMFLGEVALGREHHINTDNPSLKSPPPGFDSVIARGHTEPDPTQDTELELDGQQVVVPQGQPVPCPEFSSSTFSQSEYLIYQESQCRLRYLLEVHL

[3] = molecular target: Protein mono-ADP-ribosyltransferase PARP9 (Homo sapiens, UniProt Q8IXQ6); assay: Inhibition of PARP9 (unknown origin)
NCI-H1373 = assay: Antitumor activity against human NCI-H1373 cells in xenograft model assessed as tumor growth inhibition relative to control; type: functional; parameters: scale not given: the % may be the effect or the level left

| Compound | IC50 [1] | IC50 [2] | IC50 [3] | Activity (NCI-H1373) |
| --- | --- | --- | --- | --- |
| Nc1ncc2c(n1)CNC(=O)c1[nH]c(Br)c(Br)c1-2 | 0.427 µM | 3.4 µM | – | – |
| C[C@@H](COCCC(=O)N1CCN(c2ncc(C(F)(F)F)cn2)CC1)Nc1cn[nH]c(=O)c1C(F)(F)F [ATAMPARIB] | – | – | > 50 µM | 49% |
